Assay results taken from patent US8435978B2, “Substituted sulfonamide compounds” (Gruenenthal GmbH, priority 2006, dated 2013).

Key:
[1] = target: T1, B1R receptor of the rat (Rattus norvegicus, UniProt P97583); experiment: Functional study on the bradykinin receptor 1 (B1R), FLIPR Ca2+ assay, rB1R cells; type: cell-based; settings: test substance 10 μM; rB1R CHO K1 cells; agonist Des-Arg9-bradykinin 100 nM; % inhibition compared with the maximum achievable inhibition
T1 construct: host or cells: CHO K1 cells (Chinese hamster ovary), stably transfected
T1 sequence (P97583 1-337): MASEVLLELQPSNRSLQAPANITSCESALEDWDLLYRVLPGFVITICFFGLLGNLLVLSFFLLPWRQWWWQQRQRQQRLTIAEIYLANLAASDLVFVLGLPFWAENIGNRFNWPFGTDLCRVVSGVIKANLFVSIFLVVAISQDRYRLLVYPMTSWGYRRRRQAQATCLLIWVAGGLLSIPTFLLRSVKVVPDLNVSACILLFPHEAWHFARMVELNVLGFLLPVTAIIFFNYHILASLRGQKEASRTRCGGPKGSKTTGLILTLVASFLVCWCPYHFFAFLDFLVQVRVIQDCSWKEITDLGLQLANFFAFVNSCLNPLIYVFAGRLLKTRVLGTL
In short: (§1)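 FLIPR Ca2+ read-out (Fluo-4, peak fluorescence) in stably transfected CHO K1 cells. Compounds at 10 μM, then 10 min later agonist challenge: human B1R with Lys-Des-Arg9-bradykinin 0.5 nM, rat B1R with Des-Arg9-bradykinin 100 nM; reported as % activation or % of maximal inhibition.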

[2] = target: T2, human B1R receptor (Homo sapiens, UniProt P46663); experiment: Functional study on the bradykinin receptor 1 (B1R), FLIPR Ca2+ assay, hB1R cells; type: cell-based; settings: test substance 10 μM; hB1R CHO K1 cells; agonist Lys-Des-Arg9-bradykinin 0.5 nM; % inhibition compared with the maximum achievable inhibition
T2 construct: host or cells: CHO K1 cells (Chinese hamster ovary), stably transfected
T2 sequence (P46663 1-353): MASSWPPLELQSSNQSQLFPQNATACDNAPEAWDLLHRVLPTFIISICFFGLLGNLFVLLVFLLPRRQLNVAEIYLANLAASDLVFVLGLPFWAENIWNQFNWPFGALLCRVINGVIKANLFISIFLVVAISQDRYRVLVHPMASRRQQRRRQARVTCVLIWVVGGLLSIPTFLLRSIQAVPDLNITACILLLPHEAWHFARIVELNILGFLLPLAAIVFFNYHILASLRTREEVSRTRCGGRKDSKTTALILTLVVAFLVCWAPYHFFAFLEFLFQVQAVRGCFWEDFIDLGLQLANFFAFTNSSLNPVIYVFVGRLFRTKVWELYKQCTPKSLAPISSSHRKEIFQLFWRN
In short: as §1

COc1cc(C)c(S(=O)(=O)N2CCCCC2COCC(=O)N2CCN(C3CCN(C)CC3)CC2)c(C)c1 (centres unmarked) [Example 8, 2-[1-(4-methoxy-2,6-dimethyl-phenylsulfonyl)-piperidin-2-ylmethoxy]-1-[4-(1-methyl-piperidin-4-yl)-piperazin-1-yl]-ethanone]
B1R Antagonism, rat [10 μM] % Inhibition [1]: 106.6%
B1R Antagonism, human [10 μM] % Inhibition [2]: 101.66%
